Earlier results, collected in patent US20080287507A1, “Nicotine containing toiletry waters” (priority 2007, published 2008).

Columns and labels:
[1] = smoking a cigarette

In the case of `CN1CCCC1c1cccnc1` (centres unmarked) [Nicotine, 3-(1-methyl-2-pyrrolidinyl)-pyridine], the “single dose that may kill an adult” value is listed as “Approximately 40 milligrams” and the “time for nicotine to reach the brain after inhalation” value [1] is listed as “around ten”.
